Measured values from the NIST ThermoML archive (doi:10.1016/j.jct.2004.12.014).

Experiments:
[1] = xn = mol fraction of the nth substance listed; settings: 318.15 K, 101 kPa, Liquid
[2] = excess molar enthalpy (molar enthalpy of mixing); xn = mol fraction of the nth substance listed; settings: 318.15 K, 101 kPa, Liquid

CCCCCOC(=O)CC [pentyl propanoate] + CCCCCCCCCCC
Settings | excess molar enthalpy [kcal/mol] | excess molar volume [m3/mol]
[1], x1 = 0.079 | – | 1.89e-07
[1], x1 = 0.1498 | – | 3.48e-07
[1], x1 = 0.2179 | – | 4.36e-07
[1], x1 = 0.2836 | – | 5.2e-07
[1], x1 = 0.3484 | – | 5.69e-07
[1], x1 = 0.4116 | – | 6.03e-07
[1], x1 = 0.4733 | – | 6.14e-07
[1], x1 = 0.5329 | – | 6.13e-07
[1], x1 = 0.5902 | – | 5.99e-07
[1], x1 = 0.6462 | – | 5.83e-07
[1], x1 = 0.7023 | – | 5.24e-07
[1], x1 = 0.7545 | – | 4.67e-07
[1], x1 = 0.8065 | – | 3.79e-07
[1], x1 = 0.8561 | – | 3.1e-07
[1], x1 = 0.9045 | – | 2.2e-07
[1], x1 = 0.9538 | – | 1.21e-07
[2], x1 = 0.0724 | 0.0592 | –
[2], x1 = 0.153 | 0.109 | –
[2], x1 = 0.229 | 0.148 | –
[2], x1 = 0.3051 | 0.179 | –
[2], x1 = 0.3748 | 0.197 | –
[2], x1 = 0.4452 | 0.206 | –
[2], x1 = 0.5015 | 0.206 | –
[2], x1 = 0.5466 | 0.201 | –
[2], x1 = 0.556 | 0.2 | –
[2], x1 = 0.6046 | 0.192 | –
[2], x1 = 0.6573 | 0.179 | –
[2], x1 = 0.7137 | 0.161 | –
[2], x1 = 0.7726 | 0.14 | –
[2], x1 = 0.8314 | 0.112 | –
[2], x1 = 0.8897 | 0.0786 | –
[2], x1 = 0.9449 | 0.0436 | –

CCCCCOC(=O)CC [pentyl propanoate] + CCCCCCCCCCCCCCCCC
Settings | excess molar enthalpy [kcal/mol] | excess molar volume [m3/mol]
[1], x1 = 0.1083 | – | 2.44e-07
[1], x1 = 0.2045 | – | 4.6e-07
[1], x1 = 0.2891 | – | 6.18e-07
[1], x1 = 0.3649 | – | 6.95e-07
[1], x1 = 0.4391 | – | 7.63e-07
[1], x1 = 0.5053 | – | 8.03e-07
[1], x1 = 0.5658 | – | 7.98e-07
[1], x1 = 0.6233 | – | 7.82e-07
[1], x1 = 0.6778 | – | 7.45e-07
[1], x1 = 0.7277 | – | 6.88e-07
[1], x1 = 0.7752 | – | 6.07e-07
[1], x1 = 0.8185 | – | 5.23e-07
[1], x1 = 0.8587 | – | 4.3e-07
[1], x1 = 0.8969 | – | 3.33e-07
[1], x1 = 0.9324 | – | 2.44e-07
[1], x1 = 0.9677 | – | 1.14e-07
[2], x1 = 0.1196 | 0.103 | –
[2], x1 = 0.2114 | 0.166 | –
[2], x1 = 0.3026 | 0.217 | –
[2], x1 = 0.3904 | 0.251 | –
[2], x1 = 0.469 | 0.269 | –
[2], x1 = 0.5373 | 0.273 | –
[2], x1 = 0.5951 | 0.267 | –
[2], x1 = 0.6196 | 0.26 | –
[2], x1 = 0.6625 | 0.247 | –
[2], x1 = 0.7073 | 0.228 | –
[2], x1 = 0.7545 | 0.203 | –
[2], x1 = 0.8044 | 0.177 | –
[2], x1 = 0.8552 | 0.143 | –
[2], x1 = 0.9052 | 0.101 | –
[2], x1 = 0.9542 | 0.0541 | –

CCC(=O)OC [methyl propanoate] + CCCCCCCCCCC
Settings | excess molar enthalpy [kcal/mol] | excess molar volume [m3/mol]
[1], x1 = 0.0968 | – | 4.8e-07
[1], x1 = 0.1299 | – | 6.34e-07
[1], x1 = 0.2313 | – | 1.02e-06
[1], x1 = 0.3207 | – | 1.285e-06
[1], x1 = 0.4052 | – | 1.433e-06
[1], x1 = 0.4772 | – | 1.508e-06
[1], x1 = 0.5465 | – | 1.514e-06
[1], x1 = 0.6062 | – | 1.482e-06
[1], x1 = 0.6609 | – | 1.417e-06
[1], x1 = 0.7121 | – | 1.302e-06
[1], x1 = 0.7581 | – | 1.188e-06
[1], x1 = 0.8001 | – | 1.041e-06
[1], x1 = 0.8396 | – | 9.14e-07
[1], x1 = 0.876 | – | 7.62e-07
[1], x1 = 0.9105 | – | 6.09e-07
[1], x1 = 0.9416 | – | 4.25e-07
[1], x1 = 0.9727 | – | 2.27e-07
[2], x1 = 0.0844 | 0.118 | –
[2], x1 = 0.1733 | 0.219 | –
[2], x1 = 0.2574 | 0.3 | –
[2], x1 = 0.327 | 0.355 | –
[2], x1 = 0.3915 | 0.394 | –
[2], x1 = 0.4431 | 0.416 | –
[2], x1 = 0.4953 | 0.432 | –
[2], x1 = 0.5414 | 0.436 | –
[2], x1 = 0.5798 | 0.434 | –
[2], x1 = 0.6125 | 0.428 | –
[2], x1 = 0.6312 | 0.422 | –
[2], x1 = 0.6661 | 0.406 | –
[2], x1 = 0.7078 | 0.382 | –
[2], x1 = 0.7509 | 0.348 | –
[2], x1 = 0.7942 | 0.307 | –
[2], x1 = 0.8346 | 0.263 | –
[2], x1 = 0.8799 | 0.21 | –
[2], x1 = 0.9235 | 0.148 | –
[2], x1 = 0.9624 | 0.0795 | –

CCCOC(=O)CC [propyl propanoate] + CCCCCCCCC
Settings | excess molar enthalpy [kcal/mol] | excess molar volume [m3/mol]
[1], x1 = 0.0358 | – | 1.43e-07
[1], x1 = 0.0804 | – | 2.79e-07
[1], x1 = 0.1547 | – | 4.77e-07
[1], x1 = 0.2247 | – | 6.11e-07
[1], x1 = 0.2939 | – | 7.16e-07
[1], x1 = 0.3601 | – | 7.97e-07
[1], x1 = 0.4243 | – | 8.28e-07
[1], x1 = 0.4879 | – | 8.32e-07
[1], x1 = 0.5463 | – | 8.3e-07
[1], x1 = 0.6022 | – | 7.94e-07
[1], x1 = 0.6569 | – | 7.54e-07
[1], x1 = 0.7113 | – | 6.79e-07
[1], x1 = 0.7635 | – | 6.03e-07
[1], x1 = 0.8139 | – | 4.89e-07
[1], x1 = 0.8623 | – | 4.1e-07
[1], x1 = 0.9092 | – | 3.02e-07
[1], x1 = 0.9537 | – | 1.55e-07
[2], x1 = 0.0729 | 0.0736 | –
[2], x1 = 0.1505 | 0.13 | –
[2], x1 = 0.2274 | 0.179 | –
[2], x1 = 0.3035 | 0.216 | –
[2], x1 = 0.3733 | 0.239 | –
[2], x1 = 0.4372 | 0.25 | –
[2], x1 = 0.4858 | 0.252 | –
[2], x1 = 0.5248 | 0.252 | –
[2], x1 = 0.5688 | 0.248 | –
[2], x1 = 0.6152 | 0.239 | –
[2], x1 = 0.6667 | 0.223 | –
[2], x1 = 0.7215 | 0.198 | –
[2], x1 = 0.7776 | 0.169 | –
[2], x1 = 0.8356 | 0.135 | –
[2], x1 = 0.8948 | 0.0929 | –
[2], x1 = 0.951 | 0.0476 | –

CCCCCCCCCCCCC [tridecane] + CCC(=O)OC
Settings | excess molar enthalpy [kcal/mol] | excess molar volume [m3/mol]
[1], x2 = 0.0687 | – | 3.33e-07
[1], x2 = 0.1431 | – | 6.43e-07
[1], x2 = 0.2538 | – | 1.057e-06
[1], x2 = 0.3537 | – | 1.323e-06
[1], x2 = 0.4366 | – | 1.462e-06
[1], x2 = 0.5144 | – | 1.543e-06
[1], x2 = 0.5811 | – | 1.548e-06
[1], x2 = 0.6387 | – | 1.514e-06
[1], x2 = 0.6932 | – | 1.429e-06
[1], x2 = 0.7403 | – | 1.32e-06
[1], x2 = 0.7836 | – | 1.217e-06
[1], x2 = 0.8229 | – | 1.075e-06
[1], x2 = 0.8583 | – | 9.26e-07
[1], x2 = 0.8914 | – | 7.83e-07
[1], x2 = 0.9212 | – | 6.29e-07
[1], x2 = 0.9596 | – | 4.05e-07
[1], x2 = 0.9748 | – | 2.5e-07
[2], x2 = 0.1102 | 0.152 | –
[2], x2 = 0.2079 | 0.264 | –
[2], x2 = 0.298 | 0.349 | –
[2], x2 = 0.3751 | 0.407 | –
[2], x2 = 0.4404 | 0.44 | –
[2], x2 = 0.4912 | 0.457 | –
[2], x2 = 0.5388 | 0.465 | –
[2], x2 = 0.5843 | 0.466 | –
[2], x2 = 0.624 | 0.459 | –
[2], x2 = 0.6309 | 0.456 | –
[2], x2 = 0.6687 | 0.44 | –
[2], x2 = 0.7093 | 0.414 | –
[2], x2 = 0.7493 | 0.382 | –
[2], x2 = 0.7925 | 0.336 | –
[2], x2 = 0.8368 | 0.283 | –
[2], x2 = 0.8813 | 0.224 | –
[2], x2 = 0.9269 | 0.152 | –
[2], x2 = 0.9664 | 0.0759 | –
